Data as given in ChEMBL document CHEMBL4828705, “Inhibition studies on carbonic anhydrase isoforms I, II, IV and IX with N-arylsubstituted secondary sulfonamides featuring a bicyclic tetrahydroindazole scaffold” (Eur J Med Chem, 2021).

Legend:
Carbonic anhydrase 2 = Carbonic anhydrase 2 (Homo sapiens, UniProt P00918); test: Inhibition of recombinant human CA2 preincubated for 15 mins by phenol red dye-based stopped-flow CO2 hydration assay
Carbonic anhydrase 9 = Carbonic anhydrase 9 (Homo sapiens, UniProt Q16790); test: Inhibition of recombinant human CA9 preincubated for 15 mins by phenol red dye-based stopped-flow CO2 hydration assay
Carbonic anhydrase 1 = Carbonic anhydrase 1 (Homo sapiens, UniProt P00915); test: Inhibition of recombinant human CA1 preincubated for 15 mins by phenol red dye-based stopped-flow CO2 hydration assay
Carbonic anhydrase 1, sequence (P00915 whole entry): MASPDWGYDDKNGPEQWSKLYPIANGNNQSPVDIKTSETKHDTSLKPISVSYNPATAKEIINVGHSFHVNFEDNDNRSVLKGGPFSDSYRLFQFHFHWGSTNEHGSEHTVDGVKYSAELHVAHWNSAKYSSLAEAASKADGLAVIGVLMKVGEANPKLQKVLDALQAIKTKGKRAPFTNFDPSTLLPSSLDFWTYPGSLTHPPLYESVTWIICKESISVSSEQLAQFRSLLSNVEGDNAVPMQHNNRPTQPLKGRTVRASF

Carbonic anhydrase 4 = Carbonic anhydrase 4 (Homo sapiens, UniProt P22748); test: Inhibition of recombinant human CA4 preincubated for 15 mins by phenol red dye-based stopped-flow CO2 hydration assay
Carbonic anhydrase 4, sequence (P22748 whole entry): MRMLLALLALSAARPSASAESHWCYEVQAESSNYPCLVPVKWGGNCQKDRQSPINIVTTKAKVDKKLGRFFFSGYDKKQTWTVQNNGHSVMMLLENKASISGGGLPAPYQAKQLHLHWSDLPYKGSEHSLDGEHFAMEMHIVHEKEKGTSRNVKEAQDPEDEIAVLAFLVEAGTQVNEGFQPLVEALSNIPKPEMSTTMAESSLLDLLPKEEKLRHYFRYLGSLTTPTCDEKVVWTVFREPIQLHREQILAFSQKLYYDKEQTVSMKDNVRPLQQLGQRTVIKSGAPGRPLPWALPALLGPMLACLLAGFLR

| SMILES | Ki (Carbonic anhydrase 2) | Ki (Carbonic anhydrase 9) | Ki (Carbonic anhydrase 1) | Ki (Carbonic anhydrase 4) |
| --- | --- | --- | --- | --- |
| O=C1CCCc2c1cnn2-c1ccc(S(=O)(=O)Nc2cccc([N+](=O)[O-])c2)cc1 | > 100 µM | > 100 µM |  |  |
| CC1(C)CC(=O)c2cnn(-c3ccc(S(=O)(=O)Nc4cccc(Cl)c4)cc3)c2C1 | > 100 µM | > 100 µM | > 100 µM |  |
| O=C1CC(c2ccccc2)Cc2c1cnn2-c1ccc(S(=O)(=O)Nc2ccccc2)cc1 (centres undefined) |  | 95.4 µM |  |  |
| CC1(C)CC(=O)c2cnn(-c3ccc(S(=O)(=O)Nc4ccc([N+](=O)[O-])cc4)cc3)c2C1 |  | > 100 µM | > 100 µM |  |
| O=C1CC(c2ccccc2)Cc2c1cnn2-c1ccc(S(=O)(=O)Nc2cccc(Cl)c2)cc1 (centres undefined) |  | 41.8 µM |  |  |
| Cc1ccc(NS(=O)(=O)c2ccc(-n3ncc4c3CC(C)(C)CC4=O)cc2)cc1 |  | > 100 µM | > 100 µM |  |
| CC1(C)CC(=O)c2cnn(-c3ccc(S(=O)(=O)Nc4ccccc4)cc3)c2C1 |  | > 100 µM |  |  |
| O=C1CCCc2c1cnn2-c1ccc(S(=O)(=O)Nc2ccc([N+](=O)[O-])cc2)cc1 |  | 83.7 µM |  |  |
| Cc1cccc(NS(=O)(=O)c2ccc(-n3ncc4c3CC(c3ccccc3)CC4=O)cc2)c1 (centres undefined) |  | 61.5 µM |  | > 100 µM |
| COc1cccc(NS(=O)(=O)c2ccc(-n3ncc4c3CC(C)(C)CC4=O)cc2)c1 |  | > 100 µM |  |  |
| Cc1cccc(NS(=O)(=O)c2ccc(-n3ncc4c3CC(C)(C)CC4=O)cc2)c1 | > 100 µM | > 100 µM | > 100 µM |  |
| CC1(C)CC(=O)c2cnn(-c3ccc(S(=O)(=O)Nc4cccc([N+](=O)[O-])c4)cc3)c2C1 |  | > 100 µM | > 100 µM |  |
| O=C1CC(c2ccccc2)Cc2c1cnn2-c1ccc(S(=O)(=O)Nc2ccc([N+](=O)[O-])cc2)cc1 (centres undefined) |  | 4.1 µM |  |  |
| COc1cccc(NS(=O)(=O)c2ccc(-n3ncc4c3CC(c3ccccc3)CC4=O)cc2)c1 (centres undefined) |  | 57.3 µM |  |  |
| Cc1ccc(NS(=O)(=O)c2ccc(-n3ncc4c3CCCC4=O)cc2)cc1 |  | 39.2 µM |  |  |
| O=C1CCCc2c1cnn2-c1ccc(S(=O)(=O)Nc2ccccc2)cc1 |  | 97.9 µM |  |  |
| Cc1ccc(NS(=O)(=O)c2ccc(-n3ncc4c3CC(c3ccccc3)CC4=O)cc2)cc1 (centres undefined) |  | 46.7 µM |  |  |
| O=C1CCCc2c1cnn2-c1ccc(S(=O)(=O)Nc2cccc(Cl)c2)cc1 |  | 37.1 µM |  |  |
| Cc1cccc(NS(=O)(=O)c2ccc(-n3ncc4c3CCCC4=O)cc2)c1 |  | 33 µM |  |  |
| COc1ccc(NS(=O)(=O)c2ccc(-n3ncc4c3CC(C)(C)CC4=O)cc2)cc1 |  | > 100 µM |  |  |
| O=C1CC(c2ccccc2)Cc2c1cnn2-c1ccc(S(=O)(=O)Nc2ccc(Cl)cc2)cc1 (centres undefined) |  | 47 µM |  |  |
| COc1ccc(NS(=O)(=O)c2ccc(-n3ncc4c3CC(c3ccccc3)CC4=O)cc2)cc1 (centres undefined) |  | 40 µM |  |  |
| O=C1CC(c2ccccc2)Cc2c1cnn2-c1ccc(S(=O)(=O)Nc2cccc([N+](=O)[O-])c2)cc1 (centres undefined) |  | 84.7 µM |  | > 100 µM |
| COc1cccc(NS(=O)(=O)c2ccc(-n3ncc4c3CCCC4=O)cc2)c1 | > 100 µM | > 100 µM |  | > 100 µM |
| COc1ccc(NS(=O)(=O)c2ccc(-n3ncc4c3CCCC4=O)cc2)cc1 |  | 56.5 µM |  |  |
| CC1(C)CC(=O)c2cnn(-c3ccc(S(=O)(=O)Nc4ccc(Cl)cc4)cc3)c2C1 |  | > 100 µM |  |  |
| O=C1CCCc2c1cnn2-c1ccc(S(=O)(=O)Nc2ccc(Cl)cc2)cc1 |  | > 100 µM |  |  |
